Source: US20240415787A1, “COMPOSITION FOR TREATING OR PREVENTING OBESITY OR OBESITY-ASSOCIATED LIVER DISEASE, COMPRISING VERBENONE DERIVATIVES” (SHIN POONG PHARMACEUTICAL CO., LTD., priority 2021, published 2024)

Tests used:
[1] = tested on: phosphorylation of Smad2/3; test: Western blot of Smad2/3 phosphorylation in VAT of HFD-induced mice; type: in vivo; conditions: 50 mg/kg as SP-8356 via water, 20 weeks, vs HFD
Description: (§1) Male C57BL/6 mice (6 weeks old, 20 g body weight) were purchased from Orient-Bio (Seongnam, Korea). All mice were maintained in a 12-hr light/dark cycle and fed ad libitum. To minimize environmental differences, mice were allowed 2 weeks for acclimation before the start of experiments. For diet-induced NAFLD experiments, mice were fed either an HFD (60% of kcal in fat, D12492, Research Diets, NJ, USA) or a normal chow diet (ND) for 20 weeks. All experimental protocols and procedures were approved by the Ethics Committee and the Institutional Animal Care and Use Committee of Korea University College of Medicine (Approval No. KOREA-2019-0026).
(§2) The mice were subdivided into vehicle and SP-1154 (50 mg/kg as SP-8356) groups. SP-1154 was administrated to the mice via tab water and the dose of drug was determined by daily water consumption (6 mL/day) and body weights, which were measured every week.
VAT was lysed in RIPA buffer (Thermo Fisher Scientific, Waltham, MA, USA) with protease inhibitor (GeneDepot, Barker, TX, USA). The protein concentration was quantified using the BCA protein assay kit (Thermo Fisher Scientific, Waltham, MA, USA). […] Protein bands were detected using the ECL assay kit (GE Healthcare, Chicago, IL, USA).

TGF-β1 = test: qRT-PCR of TGF-β1 mRNA in VAT of HFD-induced mice; type: in vivo; conditions: HFD vs HFD with SP-1154, 20 weeks
Description: as §1, §2
(§3) Total RNA was extracted from VAT samples using the Trizol reagent (Invitrogen, Carlsbad, CA, USA) and the generation of cDNA was performed using the reverse transcription reaction kit (iScript cDNA synthesis kit, Bio-Rad, Hercules, CA, USA). Gene expression was assessed using SYBR Green mixture (iQTM SYBR Green Supermix, Bio-Rad, Hercules, CA, USA) and an iCycler PCR thermocycler (Bio-Rad, Hercules, CA, USA). […]

TGF-βR1 = test: qRT-PCR of TGF-βR1 mRNA in VAT of HFD-induced mice; type: in vivo; conditions: HFD vs HFD with SP-1154, 20 weeks
Description: as §1, §2, §3

[2] = Body weight and food intake during 20-week HFD study; type: in vivo; conditions: HFD-induced mice, 50 mg/kg as SP-8356, 20 weeks; vs HFD
Description: as §1, §2

VAT inflammation = test: 18F-FDG PET/CT imaging of VAT metabolic activity (SUVmax); type: in vivo, mice
Description: as §1
The mice were subdivided into vehicle and SP-1154 (50 mg/kg as SP-8356) groups. SP-1154 was administrated to the mice via tab water and the dose of drug was determined by daily water consumption (6 mL/day) and body weights, which were measured every week. […]
Images were analyzed by two experienced nuclear medicine physicians (KP and HWK) using commercially available software (Syngo. via, Siemens Healthcare, Erlangen, Germany). […] For the evaluation of VAT metabolic activity, region on interest (ROI) was placed along the intra-abdominal fat on each slice and the maximum standardized uptake value (SUVmax) was measured, as previously described. […]

C-reactive protein (CRP) = test: ELISA of serum C-reactive protein; type: in vivo, mice
Description: as §1, §2
Serum concentration of C-reactive protein (CRP) was determined using a commercially available ELISA kit (ab157712, Abcam, Cambridge, MA, USA) according to the manufacturer's instruction.

CD68 = CD68 immunohistochemistry of VAT; type: in vivo, mice; conditions: IHC on harvested VAT; vs HFD
Description: as §1, §2
(§4) Mice were sacrificed after 20 weeks of drug administration by using the CO2 chamber. […] Adipocyte surface area of a minimum of 300 cells per group was measured using ImageJ software (version 1.45 s, Bethesda, MD, USA), as previously described. Hepatic steatosis was assessed using three-scale scoring system based on H&E-stained liver: score 1 (mild, 5-33%); score 2 (moderate, 34-66%); score 3 (severe, >66%). […]

[3] = tested on: macrophage infiltration into VAT; test: Flow cytometry of F4/80+CD11b+ macrophages in VAT; type: in vivo, mice; conditions: vs HFD
Description: as §1, §2
Cells were suspended in 0.1 mL of fluorescence-activated cell sorting (FACS) buffer (phosphate-buffered saline; PBS with 5% fetal bovine serum; FBS) and incubated with Fc blocker (BD Bioscience, San Jose, CA, USA) at room temperature for 10 min, followed by an additional 30 min with anti-CD45 APC-Cy7, anti-F4/80 PE, and anti-CD11b-PerCP-Cy5.5 (Biolegend, San Diego, CA, USA) antibodies according to the manufacturer's recommendation. […]

GLUT1 = GLUT1 expression in VAT (immunostaining, qRT-PCR); type: in vivo, mice; conditions: 20 weeks of HFD, vs HFD
Description: as §1, §2
(§5) Tissues were incubated with anti-CD68 (ab 125212, Abcam, Cambridge, MA, USA), anti-glucose transporter 1 (GLUT1) (ab652, Abcam, Cambridge, MA, USA), and anti-GLUT4 (ab654, Abcam, MA, USA). Alexa Fluor 594 (Invitrogen, Carlsbad, CA, USA) was used as secondary antibody. All fluorescence images were acquired with Zeiss Axio Scan.Z1 (Carl Zeiss, Jena, Germany). […]

GLUT4 = GLUT4 expression in VAT (immunostaining, qRT-PCR); type: in vivo, mice; conditions: 20 weeks of HFD, vs HFD
Description: as §1, §2, §5

adipocytes in VAT = test: Histopathology of VAT: adipocyte surface area; type: in vivo, mice; conditions: 20 weeks of HFD, vs HFD
Description: as §1, §2, §4

[4] = Insulin tolerance test (ITT); type: in vivo; conditions: HFD-induced mice; vs HFD
Description: as §1, §2
(§6) For GTT, glucose (2 g/kg body weight) was orally administered to mice after overnight fasting, and blood was drawn to measure glucose concentrations at indicated times thereafter. For ITT, insulin (1.5 insulin units/kg body weight) was intraperitoneally injected into mice after fasting for 4 hours, and blood was drawn to measure blood glucose at indicated times. Insulin concentrations were measured at each indicated time in serum collected from the mice subjected to GTT.

[5] = Glucose tolerance test (GTT); type: in vivo; conditions: HFD-induced mice; vs HFD
Description: as §1, §2, §6

[6] = tested on: HFD-induced liver steatosis; test: CT measurement of liver density (Hounsfield units); type: in vivo, mice; conditions: measured in HU, vs HFD
Description: as §1, §2
^18F-FDG PET/CT was performed using a dedicated small animal PET/CT scanner (eXplore Vista DR PET/CT, GE Healthcare, Milwaukee, WI, USA). Mice were not fasted before taking examination and anesthetized with 2% isoflurane in oxygen (1 L/min) during the examination. PET/CT image acquisition was started 40 min after the injection of 18.5 MBq/0.1 mL of ^18F-FDG via the tail vein. Static PET images were acquired for 20 min, followed by CT scan (40 kV, 250 uA). […]

[7] = tested on: HFD-induced liver steatosis; test: Liver weight and liver steatosis score of harvested liver; type: in vivo, mice; conditions: vs HFD
Description: as §1, §2, §4

[8] = Blood analysis (serum AST, ALT, total cholesterol); type: in vivo, mice
Description: as §1, §2
Blood samples were collected immediately before sacrifice. The levels of AST (aspartate aminotransferase), ALT (alanine aminotransferase), total cholesterol, and triglyceride in serum were measured using a FUJI DRI-Chemiclinical Chemistry Analyzer (FUJI DRI-CHEM 4000i, Fuji Film, Tokyo, Japan).

[9] = Solubility in saline / water; type: physicochemical
[10] = Conversion of prodrug to SP-8356
[11] = Efficacy of suspension versus soluble prodrug form; conditions: suspension in saline
[12] = normal mice vs SP-1154-treated mice

Structure (SMILES): COc1cc(/C=C/C2=CC(=O)[C@H]3C[C@@H]2C3(C)C)cc(OC(=O)[C@@H](N)C(C)C)c1OC(=O)[C@@H](N)C(C)C.Cl.Cl [SP-1154, (2S,2'S)-5-((E)-2-((1R,5S)-6,6-dimethyl-4-oxobicyclo[3.1.1]hept-2-en-2-yl)vinyl)-3-methoxy-1,2-phenylene bis(2-amino-3-methylbutanoate)-dihydrochloride]
- phosphorylation of Smad2/3 in VAT [1]: inhibited
- mRNA expression level of TGF-β1 in VAT (TGF-β1): no significant difference
- mRNA expression level of TGF-βR1 in VAT (TGF-βR1): no significant difference
- HFD-induced body weight gain [2]: significantly attenuated
- VAT SUVmax (VAT inflammation; 18F-FDG PET/CT after 20 weeks of HFD, vs HFD): significantly reduced
- VAT SUVmax, difference to normal mice (VAT inflammation; [12]): no significant difference
- CRP levels, difference to normal mice (C-reactive protein (CRP); [12]): no significant difference
- levels of CRP (C-reactive protein (CRP); serum, HFD-induced mice, vs HFD): significantly suppressed
- expression of CD68 in VAT (CD68): suppressed
- macrophage infiltration into VAT [3]: significantly prevented
- GLUT1 expression (GLUT1): decreased
- GLUT4 expression (GLUT4): increased
- adipocyte size (adipocytes in VAT): significant reduction
- insulin resistance (ITT) [4]: significantly improved
- glucose homeostasis (GTT) [5]: significantly improved
- liver density [6]: significantly enhanced
- liver steatosis score ([7]; H&E-stained liver, three-scale scoring): significantly reduced
- liver weight ([7]; harvested liver): significantly reduced
- serum total cholesterol ([8]; HFD vs HFD with SP-1154): no significant difference
- level of ALT ([8]; serum, HFD-induced mice): improved
- level of AST ([8]; serum, HFD-induced mice): improved
- water solubility ([9]; water): high
- conversion of prodrug to SP-8356 [10]: converted to SP-8356 very quickly

Structure (SMILES): COc1cc(C=CC2=CC(=O)[C@H]3C[C@@H]2C3(C)C)cc(O)c1O [SP-8356, (1S,5R)-4-(3,4-dihydroxy-5-methoxystyryl)-6,6-dimethylbicyclo[3.1.1]hept-3-en-2-one]
- solubility in saline ([9]; saline): does not dissolve well in saline
- efficacy when used as a suspension [11]: weak but significant
